Test results as given in patent US11345956B2, “Methods and compositions related to prostate cancer therapeutics” (The Johns Hopkins University, priority 2014, dated 2022).
Read-outs that look alike come from different tables or passages of the source.

System: metastatic castration-resistant prostate cancer (CRPC)
Conditions: for median overall survival (OS): preliminary survival analysis; for PSA response rate (≥50% PSA decline from baseline, maintained ≥4 weeks): all patients of the cohort; for HR for PFS, AR-V7 presence / HR for PSA-PFS, AR-V7 presence: multivariable Cox model adjusting for AR-FL expression and prior use of the alternative AR-directed agent; for HR for PFS, AR-FL levels / HR for PSA-PFS, AR-FL levels / HR for PFS, previous use of alternative AR-directed agent / HR for PSA-PFS, previous use of alternative AR-directed agent: multivariable Cox model; for HR for PFS, AR-FL levels / HR for PSA-PFS, AR-FL levels: covariate AR-FL level; for HR for PFS, previous use of alternative AR-directed agent / HR for PSA-PFS, previous use of alternative AR-directed agent: previous abiraterone (enzalutamide cohort) or previous enzalutamide (abiraterone cohort); for Hazard Ratio (HR) for PFS, variable AR-FL Level (log) / Hazard Ratio (HR) for PFS, variable AR-V7 Positive / Hazard Ratio (HR) for PFS, variable Prior use of Abiraterone / Hazard Ratio (HR) for PSA-PFS, variable AR-FL Level (log) / Hazard Ratio (HR) for PSA-PFS, variable AR-V7 Positive / Hazard Ratio (HR) for PSA-PFS, variable Prior use of Abiraterone: propensity score weighted multivariable model; for hazard ratio (HR) for OS, AR-V7-positive vs AR-V7-negative / hazard ratio (HR) for PFS, AR-V7-positive vs AR-V7-negative / hazard ratio (HR) for PSA-PFS, AR-V7-positive vs AR-V7-negative: univariate, log-rank
[1] = AR-V7-negative patients (baseline CTCs)
[2] = AR-V7-positive patients (baseline CTCs)
[3] = no previous alternative AR-directed agent (abiraterone/enzalutamide), AR-V7 [+]
[4] = no previous alternative AR-directed agent (abiraterone/enzalutamide), AR-V7 [−]
[5] = previous alternative AR-directed agent (abiraterone/enzalutamide)
[6] = previous alternative AR-directed agent (abiraterone/enzalutamide), AR-V7 [+]
[7] = previous alternative AR-directed agent (abiraterone/enzalutamide), AR-V7 [−]
[8] = no previous alternative AR-directed agent (abiraterone/enzalutamide)

Protocol: Men with metastatic CRPC who were beginning standard-of-care treatment with enzalutamide or abiraterone were prospectively enrolled. Patients were required to have histologically-confirmed prostate adenocarcinoma, progressive disease despite “castration levels” of serum testosterone (<50 ng/dL; and androgen-deprivation therapy had to continue), and radiographic metastases on computed tomography (CT) or technetium-99 bone scans. […] Patients were excluded if they planned to receive additional concurrent anticancer therapies. Prior chemotherapy was permitted, as was previous treatment with the alternative AR-directed agent (i.e. prior abiraterone use in enzalutamide-treated patients, and vice versa).
This was a prospective study evaluating the ability of baseline (pretreatment) AR-V7 status from CTCs (circulating tumor cells) to predict response or resistance to AR-directed agents.
Follow-up was prospectively defined: patients had PSA measurements every 1-2 months, as well as CT (chest/abdomen/pelvis) and technetium-99 bone scans every 2-4 months.
CTC analyses were conducted using the commercially-available ALERE™ CTC AdnaTest platform (AdnaGen, Langenhagen, Germany). Isolation and enrichment of CTCs was performed using the ProstateCancerSelect kit, and mRNA expression analyses were performed using the ProstateCancerDetect kit with multiplexed reverse-transcription polymerase-chain-reaction (qRT-PCR) primers to detect the presence of CTCs, and custom primers designed to detect the full-length-AR (AR-FL) and AR splice variant-7 (AR-V7) (Hu, R., et al. (2009) Cancer Res 69, 16-22). Relative AR-V7 transcript abundance was determined by calculating the ratio of AR-V7 to AR-FL (Hu, R., et al. (2009) Cancer Res 69, 16-22; Watson, P. A., et al. (2010) Proceedings of the National Academy of Sciences).
Best PSA response (maximal percentage PSA decrease from baseline) for each patient was also determined.
Secondary endpoints included freedom-from-PSA-progression (PSA-progression-free-survival; PSA-PFS), freedom-from-clinical/radiographic-progression (progression-free-survival; PFS), and overall survival (OS). PSA-progression was defined as a ≥25% increase in PSA from nadir (and by ≥2 ng/mL), requiring confirmation ≥4 weeks later (PCWG2 criteria) (Scher, H. I., et al. (2008) Journal of Clinical Oncology: Oficial Journal of the American Society of Clinical Oncology 26, 1148-1159).

| SMILES | median PSA-progression-free survival (PSA-PFS) (AR-V7-negative patients) [months] | median clinical/radiographic progression-free survival (PFS) (AR-V7-negative patients) [months] | PSA response rate (≥50% PSA decline from baseline) [1] [%] | median overall survival (OS) (AR-V7-negative patients) | median PSA-progression-free survival (PSA-PFS) (AR-V7-positive patients) [months] | median clinical/radiographic progression-free survival (PFS) (AR-V7-positive patients) [months] | PSA response rate (≥50% PSA decline from baseline) [2] [%] | median overall survival (OS) (AR-V7-positive patients) [months] | PSA response rate (≥50% PSA decline from baseline, maintained ≥4 weeks) [%] | HR for PFS, AR-V7 presence | HR for PSA-PFS, AR-V7 presence | HR for PFS, AR-FL levels | HR for PSA-PFS, AR-FL levels | HR for PFS, previous use of alternative AR-directed agent | HR for PSA-PFS, previous use of alternative AR-directed agent | PSA Response [3] [%] | PSA Response [4] [%] | PSA Response [6] [%] | PSA Response [7] [%] | Hazard Ratio (HR) for PFS, variable AR-FL Level (log) | further results |
| --- | --- | --- | --- | --- | --- | --- | --- | --- | --- | --- | --- | --- | --- | --- | --- | --- | --- | --- | --- | --- | --- |
| CNC(=O)c1ccc(N2C(=S)N(c3ccc(C#N)c(C(F)(F)F)c3)C(=O)C2(C)C)cc1F [enzalutamide] | 6.0 | 6.1 | 52.6 | not reached | 1.4 | 2.1 | 0 | 5.5 | 32.3 | 3.0 | 3.1 | 1.7 | 1.4 | 2.6 | 2.5 | 0 | 80 | 0 | 22 | 1.64 | PFA-PFS HR, AR-V7 [+] vs [−] [5]: HR 3.34; PFS HR, AR-V7 [+] vs [−] [5]: HR 2.93; Hazard Ratio (HR) for PFS, variable AR-V7 Positive: 3.38; Hazard Ratio (HR) for PFS, variable Prior use of Abiraterone: 1.54; Hazard Ratio (HR) for PSA-PFS, variable AR-FL Level (log): 1.33; Hazard Ratio (HR) for PSA-PFS, variable AR-V7 Positive: 3.40; Hazard Ratio (HR) for PSA-PFS, variable Prior use of Abiraterone: 2.66; hazard ratio (HR) for OS, AR-V7-positive vs AR-V7-negative: 6.9; hazard ratio (HR) for PFS, AR-V7-positive vs AR-V7-negative: 8.5; hazard ratio (HR) for PSA-PFS, AR-V7-positive vs AR-V7-negative: 7.4 |
| C[C@]12CC[C@H](O)CC1=CC[C@@H]1[C@@H]2CC[C@]2(C)C(c3cccnc3)=CC[C@@H]12 [abiraterone] | > 5.3 | > 6.3 | 68.0 | > 11.9 months | 1.3 | 2.3 | 0 | 10.6 | 54.8 | 7.6 | 15.7 | 1.1 | 1.0 | 1.9 | 0.9 | 0 | 74 | 0 | 0 | 1.36 | PFA-PFS HR, AR-V7 [+] vs [−] [8]: HR 41.0; PFS HR, AR-V7 [+] vs [−] [8]: HR 28.2; Hazard Ratio (HR) for PFS, variable AR-V7 Positive: 5.25; Hazard Ratio (HR) for PFS, variable Prior use of Abiraterone: 1.72; Hazard Ratio (HR) for PSA-PFS, variable AR-FL Level (log): 1.05; Hazard Ratio (HR) for PSA-PFS, variable AR-V7 Positive: 17.51; Hazard Ratio (HR) for PSA-PFS, variable Prior use of Abiraterone: 0.61; hazard ratio (HR) for OS, AR-V7-positive vs AR-V7-negative: 12.7; hazard ratio (HR) for PFS, AR-V7-positive vs AR-V7-negative: 16.5; hazard ratio (HR) for PSA-PFS, AR-V7-positive vs AR-V7-negative: 16.1 |
